Data: the supplement of paper PMC6411743

Compound: Nc1ncnc2c1ncn2[C@@H]1O[C@H](COP(=O)(O)OP(=O)(O)OP(=O)(O)O)[C@@H](O)[C@H]1O [adenosine triphosphate]
Assay: pEC50 of ATP-induced change in protein thermal stability (2D-TPP)
Procedure: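 2D thermal proteome profiling in mechanically disrupted Jurkat crude lysate. Lysate was treated 10 min at room temperature with Na-ATP (0, 0.005, 0.05, 0.5, 2 mM), heated to 12 temperatures (42-63.9 °C) for 3 min, and soluble protein was quantified by TMT10 LC-MS/MS. pEC50 is the median over replicates of dose-response fits at the lowest temperature showing a fold change of at least 1.5 (FDR-controlled hits).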

Chain of UniProt P40227 (P40227 whole entry): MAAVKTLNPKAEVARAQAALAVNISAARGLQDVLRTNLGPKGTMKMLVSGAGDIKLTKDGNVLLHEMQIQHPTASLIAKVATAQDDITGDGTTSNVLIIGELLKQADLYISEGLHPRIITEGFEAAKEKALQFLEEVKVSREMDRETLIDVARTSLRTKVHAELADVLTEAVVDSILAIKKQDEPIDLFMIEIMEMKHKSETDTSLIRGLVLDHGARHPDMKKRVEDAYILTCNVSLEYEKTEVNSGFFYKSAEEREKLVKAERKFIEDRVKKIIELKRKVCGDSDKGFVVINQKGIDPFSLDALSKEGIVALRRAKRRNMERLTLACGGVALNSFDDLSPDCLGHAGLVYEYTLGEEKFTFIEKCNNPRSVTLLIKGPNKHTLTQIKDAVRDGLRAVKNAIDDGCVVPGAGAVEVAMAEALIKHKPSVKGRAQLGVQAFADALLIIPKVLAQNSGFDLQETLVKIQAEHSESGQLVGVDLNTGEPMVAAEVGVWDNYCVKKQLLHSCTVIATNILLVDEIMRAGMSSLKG
Chain of UniProt P07384 (P07384 whole entry): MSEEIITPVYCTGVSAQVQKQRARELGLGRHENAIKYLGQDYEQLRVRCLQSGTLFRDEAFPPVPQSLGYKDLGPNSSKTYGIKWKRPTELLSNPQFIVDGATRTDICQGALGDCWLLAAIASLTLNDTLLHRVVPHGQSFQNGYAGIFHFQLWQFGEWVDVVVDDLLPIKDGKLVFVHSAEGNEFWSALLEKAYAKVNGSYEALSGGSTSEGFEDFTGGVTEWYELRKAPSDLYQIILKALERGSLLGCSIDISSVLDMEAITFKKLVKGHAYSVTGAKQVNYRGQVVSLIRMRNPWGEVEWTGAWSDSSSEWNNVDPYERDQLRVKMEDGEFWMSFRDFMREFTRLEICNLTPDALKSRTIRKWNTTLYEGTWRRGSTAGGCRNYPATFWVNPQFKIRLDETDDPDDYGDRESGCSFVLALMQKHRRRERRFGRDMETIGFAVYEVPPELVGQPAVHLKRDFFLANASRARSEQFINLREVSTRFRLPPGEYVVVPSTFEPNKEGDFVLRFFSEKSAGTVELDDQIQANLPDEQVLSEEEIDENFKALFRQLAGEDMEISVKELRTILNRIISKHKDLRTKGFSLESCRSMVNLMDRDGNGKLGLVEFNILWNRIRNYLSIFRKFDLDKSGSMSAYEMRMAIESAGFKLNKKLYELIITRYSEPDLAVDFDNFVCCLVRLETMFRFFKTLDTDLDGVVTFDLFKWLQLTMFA
Chain of UniProt Q14137 (Q14137 whole entry): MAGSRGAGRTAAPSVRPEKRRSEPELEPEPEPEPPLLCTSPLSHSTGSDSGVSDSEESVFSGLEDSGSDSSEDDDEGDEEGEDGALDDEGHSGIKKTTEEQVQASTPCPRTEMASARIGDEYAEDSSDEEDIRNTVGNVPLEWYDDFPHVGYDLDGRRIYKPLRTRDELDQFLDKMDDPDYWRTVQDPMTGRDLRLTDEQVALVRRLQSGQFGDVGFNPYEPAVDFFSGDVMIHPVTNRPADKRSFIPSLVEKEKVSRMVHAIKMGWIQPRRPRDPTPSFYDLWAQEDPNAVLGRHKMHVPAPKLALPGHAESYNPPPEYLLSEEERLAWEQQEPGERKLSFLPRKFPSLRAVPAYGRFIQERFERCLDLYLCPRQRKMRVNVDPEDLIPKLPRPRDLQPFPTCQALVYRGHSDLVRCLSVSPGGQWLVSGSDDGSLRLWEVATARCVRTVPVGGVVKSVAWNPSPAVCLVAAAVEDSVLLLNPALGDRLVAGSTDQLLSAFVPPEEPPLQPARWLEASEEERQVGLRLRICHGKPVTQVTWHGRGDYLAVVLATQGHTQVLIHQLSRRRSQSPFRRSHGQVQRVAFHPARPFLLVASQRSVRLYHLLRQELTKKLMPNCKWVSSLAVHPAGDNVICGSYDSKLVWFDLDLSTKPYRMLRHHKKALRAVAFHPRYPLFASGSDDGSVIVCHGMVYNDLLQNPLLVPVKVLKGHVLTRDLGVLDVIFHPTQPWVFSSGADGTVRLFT
Chain of UniProt Q9BZE9 (Q9BZE9 whole entry): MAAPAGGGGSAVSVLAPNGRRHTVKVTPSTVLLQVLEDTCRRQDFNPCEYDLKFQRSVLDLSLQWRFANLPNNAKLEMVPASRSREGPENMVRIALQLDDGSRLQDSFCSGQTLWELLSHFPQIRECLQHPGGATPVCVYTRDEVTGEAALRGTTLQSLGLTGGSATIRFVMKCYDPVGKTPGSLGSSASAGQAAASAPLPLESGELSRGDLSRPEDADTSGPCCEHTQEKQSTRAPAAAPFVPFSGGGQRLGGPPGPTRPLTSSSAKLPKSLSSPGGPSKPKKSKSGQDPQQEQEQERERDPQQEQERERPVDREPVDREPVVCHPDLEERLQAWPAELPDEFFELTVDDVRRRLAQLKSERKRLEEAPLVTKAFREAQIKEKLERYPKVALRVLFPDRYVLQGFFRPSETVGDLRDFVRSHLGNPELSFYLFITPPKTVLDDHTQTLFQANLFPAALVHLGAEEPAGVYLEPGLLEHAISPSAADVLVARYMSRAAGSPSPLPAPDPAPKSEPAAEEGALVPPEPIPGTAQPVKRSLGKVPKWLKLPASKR
Chain of UniProt Q96RR4 (Q96RR4 whole entry, looked up): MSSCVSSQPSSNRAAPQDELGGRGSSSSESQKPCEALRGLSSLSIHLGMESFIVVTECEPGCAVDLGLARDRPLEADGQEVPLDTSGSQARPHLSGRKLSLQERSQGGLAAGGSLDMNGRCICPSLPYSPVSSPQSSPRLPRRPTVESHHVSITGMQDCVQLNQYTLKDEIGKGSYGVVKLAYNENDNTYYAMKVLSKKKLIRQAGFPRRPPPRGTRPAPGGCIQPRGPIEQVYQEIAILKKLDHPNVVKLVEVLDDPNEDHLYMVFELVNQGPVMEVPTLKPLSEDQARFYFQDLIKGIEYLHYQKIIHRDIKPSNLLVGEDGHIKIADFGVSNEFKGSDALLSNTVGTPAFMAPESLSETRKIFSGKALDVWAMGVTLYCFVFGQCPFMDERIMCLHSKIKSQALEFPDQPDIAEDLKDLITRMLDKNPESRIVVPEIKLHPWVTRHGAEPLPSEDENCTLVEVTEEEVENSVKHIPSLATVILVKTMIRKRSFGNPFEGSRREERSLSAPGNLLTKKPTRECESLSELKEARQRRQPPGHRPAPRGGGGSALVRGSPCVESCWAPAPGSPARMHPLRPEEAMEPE
Chain of UniProt Q9Y376 (Q9Y376 whole entry): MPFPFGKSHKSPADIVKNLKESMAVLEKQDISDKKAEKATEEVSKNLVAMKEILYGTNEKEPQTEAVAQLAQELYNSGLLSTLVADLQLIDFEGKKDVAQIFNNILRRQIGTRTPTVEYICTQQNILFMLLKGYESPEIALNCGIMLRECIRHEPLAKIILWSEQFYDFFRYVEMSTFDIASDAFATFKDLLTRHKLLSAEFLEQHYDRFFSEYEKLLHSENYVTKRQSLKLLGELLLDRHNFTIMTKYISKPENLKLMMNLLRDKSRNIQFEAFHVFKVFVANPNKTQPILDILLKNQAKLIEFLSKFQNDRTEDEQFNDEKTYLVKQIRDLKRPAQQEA
Chain of UniProt Q86VP6 (Q86VP6 whole entry): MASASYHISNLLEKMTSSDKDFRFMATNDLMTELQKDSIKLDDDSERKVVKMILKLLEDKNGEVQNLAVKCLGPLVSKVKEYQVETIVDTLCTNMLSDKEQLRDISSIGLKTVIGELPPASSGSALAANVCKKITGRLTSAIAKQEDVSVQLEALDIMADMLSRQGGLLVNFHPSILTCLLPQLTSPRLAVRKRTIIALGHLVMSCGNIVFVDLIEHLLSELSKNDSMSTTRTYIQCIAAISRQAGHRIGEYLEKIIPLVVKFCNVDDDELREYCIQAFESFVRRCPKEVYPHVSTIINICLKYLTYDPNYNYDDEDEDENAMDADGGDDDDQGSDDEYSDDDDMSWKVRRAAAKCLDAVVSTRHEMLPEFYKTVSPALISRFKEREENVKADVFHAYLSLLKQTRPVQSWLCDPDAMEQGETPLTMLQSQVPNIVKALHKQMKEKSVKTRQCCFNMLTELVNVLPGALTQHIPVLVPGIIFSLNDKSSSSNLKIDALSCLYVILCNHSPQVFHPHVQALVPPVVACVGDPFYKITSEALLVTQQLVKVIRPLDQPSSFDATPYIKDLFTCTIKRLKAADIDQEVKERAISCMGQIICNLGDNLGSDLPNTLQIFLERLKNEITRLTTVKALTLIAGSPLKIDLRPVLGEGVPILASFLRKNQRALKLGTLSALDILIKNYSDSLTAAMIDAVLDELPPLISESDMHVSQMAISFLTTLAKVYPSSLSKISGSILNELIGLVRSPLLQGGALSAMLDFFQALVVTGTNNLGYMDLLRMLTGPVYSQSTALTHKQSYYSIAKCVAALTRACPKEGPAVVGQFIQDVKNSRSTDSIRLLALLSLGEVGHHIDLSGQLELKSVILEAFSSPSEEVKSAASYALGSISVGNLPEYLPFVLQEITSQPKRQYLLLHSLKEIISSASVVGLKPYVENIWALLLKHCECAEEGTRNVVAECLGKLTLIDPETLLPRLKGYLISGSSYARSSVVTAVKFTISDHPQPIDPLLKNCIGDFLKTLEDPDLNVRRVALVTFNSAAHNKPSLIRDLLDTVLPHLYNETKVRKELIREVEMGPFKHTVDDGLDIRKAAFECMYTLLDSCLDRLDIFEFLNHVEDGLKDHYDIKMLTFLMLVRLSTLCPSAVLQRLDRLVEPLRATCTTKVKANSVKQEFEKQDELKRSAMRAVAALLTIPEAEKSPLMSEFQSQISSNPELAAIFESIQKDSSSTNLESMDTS
Chain of UniProt Q07021 (Q07021 whole entry): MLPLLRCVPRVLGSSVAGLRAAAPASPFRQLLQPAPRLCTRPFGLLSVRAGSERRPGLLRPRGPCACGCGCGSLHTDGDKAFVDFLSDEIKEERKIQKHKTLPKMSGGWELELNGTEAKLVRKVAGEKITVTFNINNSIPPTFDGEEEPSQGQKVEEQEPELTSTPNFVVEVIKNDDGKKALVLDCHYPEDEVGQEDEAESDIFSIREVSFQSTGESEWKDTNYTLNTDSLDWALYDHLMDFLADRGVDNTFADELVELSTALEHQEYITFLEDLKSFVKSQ

pEC50 | Target
4.35 | A0AVT1 (effect direction: stabilized)
3.29 | AARS2 (effect direction: stabilized) (UniProt Q5JTZ9)
4.2 | AARS (effect direction: stabilized) (UniProt P49588)
3.5 | ABCB8 (effect direction: stabilized) (UniProt Q9NUT2)
4.06 | ABCB10 (effect direction: stabilized) (UniProt Q9NRK6)
3.46 | ABCC1 (effect direction: stabilized) (UniProt P33527)
< 2.7 | ACADM (effect direction: stabilized) (UniProt P11310)
3.16 | ACLY (effect direction: stabilized) (UniProt P53396)
3.63 | ACSL1 (effect direction: stabilized) (UniProt P33121)
3.69 | ACSL6 (effect direction: stabilized) (UniProt Q9UKU0)
3.4 | ACTL6A (effect direction: stabilized) (UniProt O96019)
4.23 | ACTR1B (effect direction: stabilized) (UniProt P42025)
< 2.7 | ACTR10 (effect direction: destabilized) (UniProt Q9NZ32)
3.82 | ADK (effect direction: stabilized) (UniProt P55263)
4.04 | ADRM1 (effect direction: stabilized) (UniProt Q16186)
3.8 | AFF4 (effect direction: stabilized) (UniProt Q9UHB7)
2.97 | AGK (effect direction: stabilized) (UniProt Q53H12)
3.89 | AGPAT5 (effect direction: stabilized) (UniProt Q9NUQ2)
4.33 | AHCY (effect direction: stabilized) (UniProt P23526)
< 2.7 | AHSA1 (effect direction: stabilized) (UniProt O95433)
< 2.7 | AIP (effect direction: stabilized) (UniProt O00170)
4.01 | AK2 (effect direction: stabilized) (UniProt P54819)
3.06 | ALDH5A1 (effect direction: stabilized) (UniProt P51649)

pEC50 | Target
3.53 | ALDH6A1 (effect direction: stabilized) (UniProt Q02252)
2.9 | ALDH9A1 (effect direction: stabilized) (UniProt P49189)
3.12 | ALDH18A1 (effect direction: stabilized) (UniProt P54886)
3.65 | ALKBH5 (effect direction: stabilized) (UniProt Q6P6C2)
2.95 | AMPD3 (effect direction: stabilized) (UniProt Q01432)
< 2.7 | ANKMY2 (effect direction: stabilized) (UniProt Q8IV38)
< 2.7 | ANP32A (effect direction: stabilized) (UniProt P39687)
< 2.7 | ANP32E (effect direction: stabilized) (UniProt Q9BTT0)
2.79 | ANXA5 (effect direction: stabilized) (UniProt P08758)
< 2.7 | ANXA6 (effect direction: stabilized) (UniProt P08133)
4.41 | APRT (effect direction: destabilized) (UniProt P07741)
3.17 | ARG2 (effect direction: destabilized) (UniProt P78540)
3.14 | ARHGAP1 (effect direction: stabilized) (UniProt Q07960)
< 2.7 | ARHGDIB (effect direction: stabilized) (UniProt P52566)
< 2.7 | ARID1A (effect direction: stabilized) (UniProt O14497)
< 2.7 | ARMC1 (effect direction: stabilized) (UniProt Q9NVT9)
2.88 | ARPC3 (effect direction: stabilized) (UniProt O15145)
4.05 | ARPC5L (effect direction: stabilized) (UniProt Q9BPX5)
3.31 | ASNA1 (effect direction: stabilized) (UniProt O43681)
3.18 | ASNS (effect direction: stabilized) (UniProt P08243)
3.92 | ASPSCR1 (effect direction: stabilized) (UniProt Q9BZE9)
3.66 | ASS1 (effect direction: stabilized) (UniProt P00966)
3.06 | ATAD2B (effect direction: destabilized) (UniProt Q9ULI0)

pEC50 | Target
3.74 | ATG7 (effect direction: stabilized) (UniProt O95352)
< 2.7 | ATIC (effect direction: stabilized) (UniProt P31939)
3.18 | ATP1A1 (effect direction: stabilized) (UniProt P05023)
3.22 | ATP2A3 (effect direction: stabilized) (UniProt Q93084)
3.22 | ATP2B4 (effect direction: stabilized) (UniProt P23634)
3.66 | ATP2C1 (effect direction: stabilized) (UniProt P98194)
4.15 | ATP11B (effect direction: stabilized) (UniProt Q9Y2G3)
< 2.7 | ATXN10 (effect direction: stabilized) (UniProt Q9UBB4)
3.03 | BCL7A (effect direction: destabilized) (UniProt Q4VC05)
2.87 | BLVRB (effect direction: stabilized) (UniProt P30043)
< 2.7 | BNIP2 (effect direction: stabilized) (UniProt Q12982)
< 2.7 | BOP1 (effect direction: stabilized) (UniProt Q14137)
< 2.7 | C1QBP (effect direction: stabilized) (UniProt Q07021)
3.11 | C12orf29 (effect direction: destabilized) (UniProt Q8N999)
3.15 | CAB39 (effect direction: stabilized) (UniProt Q9Y376)
2.95 | CACYBP (effect direction: stabilized) (UniProt Q9HB71)
3.4 | CAMK2G (effect direction: stabilized) (UniProt Q13555)
3.63 | CAMKK2 (effect direction: stabilized) (UniProt Q96RR4)
2.95 | CAND1 (effect direction: stabilized) (UniProt Q86VP6)
5 | CAP1 (effect direction: stabilized) (UniProt Q01518)
3.17 | CAPN1 (effect direction: stabilized) (UniProt P07384)
2.86 | CAPNS1 (effect direction: stabilized) (UniProt P04632)
3.14 | CARS2 (effect direction: stabilized) (UniProt Q9HA77)

pEC50 | Target
3.63 | CARS (effect direction: stabilized) (UniProt P49589)
2.96 | CBWD1 (effect direction: stabilized) (UniProt Q9BRT8)
3.49 | CCDC12 (effect direction: destabilized) (UniProt Q8WUD4)
< 2.7 | CCDC86 (effect direction: stabilized) (UniProt Q9H6F5)
4.27 | CCNB1 (effect direction: stabilized) (UniProt P14635)
4.13 | CCNB2 (effect direction: stabilized) (UniProt O95067)
3.02 | CCT5 (effect direction: stabilized) (UniProt P48643)
4.38 | CCT6A (effect direction: stabilized) (UniProt P40227)
4.39 | CCT7 (effect direction: stabilized) (UniProt Q99832)
3.22 | CDC40 (effect direction: destabilized) (UniProt O60508)
2.77 | CDIPT (effect direction: destabilized) (UniProt O14735)
3.13 | CDK2 (effect direction: stabilized) (UniProt P24941)
3.46 | CDK5 (effect direction: stabilized) (UniProt Q00535)
> 5.3 | CDK9 (effect direction: stabilized) (UniProt P50750)
2.9 | CDKAL1 (effect direction: destabilized) (UniProt Q5VV42)
3.06 | CEBPZ (effect direction: destabilized) (UniProt Q03701)
4.04 | CENPE (effect direction: stabilized) (UniProt Q02224)
< 2.7 | CHD1 (effect direction: stabilized) (UniProt O14646)
3.74 | CHD1L (effect direction: stabilized) (UniProt Q86WJ1)
3.05 | CHERP (effect direction: stabilized) (UniProt Q8IWX8)
3.49 | CHKA (effect direction: stabilized) (UniProt P35790)

Target | pEC50
BICD2 (effect direction: stabilized) (UniProt Q8TD16) | < 2.7
